{"source": "patent US8633194B2", "about": "“Pharmaceutical composition of piperazine derivatives” (UCB Pharma, S.A., priority 2004, dated 2014)", "origin": "cited, not measured here", "molecular_target": "histamine H1-receptor (Homo sapiens, UniProt P35367)", "sequence (P35367 whole entry, species assumed)": "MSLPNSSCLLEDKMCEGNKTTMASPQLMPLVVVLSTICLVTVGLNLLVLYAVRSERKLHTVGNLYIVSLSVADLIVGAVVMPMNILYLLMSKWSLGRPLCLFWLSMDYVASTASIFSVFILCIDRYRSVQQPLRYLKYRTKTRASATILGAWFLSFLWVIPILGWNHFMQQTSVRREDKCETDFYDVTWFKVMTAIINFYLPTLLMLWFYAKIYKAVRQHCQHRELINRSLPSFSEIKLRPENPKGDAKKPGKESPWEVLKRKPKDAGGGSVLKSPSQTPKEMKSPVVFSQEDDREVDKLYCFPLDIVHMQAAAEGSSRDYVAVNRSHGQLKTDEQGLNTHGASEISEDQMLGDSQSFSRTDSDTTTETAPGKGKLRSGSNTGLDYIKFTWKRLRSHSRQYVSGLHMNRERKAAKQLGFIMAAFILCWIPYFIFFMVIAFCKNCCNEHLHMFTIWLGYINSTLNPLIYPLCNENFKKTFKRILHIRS", "conditions": "in vitro", "data": [{"smiles": "O=C(O)COCCN1CCN(C(c2ccc(F)cc2)c2ccc(F)cc2)CC1", "note": "[Efletirizine, 2-[2-[4-[bis(4-fluorophenyl)methyl]-1-piperazinyl]ethoxy]acetic acid]", "values": [{"measurement": "Affinity for H1-receptors", "result": "high affinity"}, {"measurement": "Selectivity for H1-receptors", "result": "selectivity"}]}]}
